Measured values reported in patent US11491155B2, “Salt of a pyrimido[6,1-A]isoquinolin-4-one compound” (VERONA PHARMA PLC, priority 2015, dated 2022).
Where a name gives a salt, the structure may show the parent alone.

How the values were obtained:
[1] = Solubility of RPL554 salts in saline solutions, water and aqueous buffer solutions at 25° C. (HPLC); assay type: physicochemical; conditions: for Solubility as RPL554 (mg/ml) in 0.7 w/w % Saline / Solubility as RPL554 (mg/ml) in 0.9 w/w % Saline / Solubility as RPL554 (mg/ml) in 1.1 w/w % Saline / Solubility as RPL554 (mg/ml) in Water: 24 hours; for Solubility as RPL554 (mg/ml) in Water: deionised water
In short: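 Salts or free base (ca 50 mg) suspended in 1 ml of buffered 0.9% saline (pH 3.5–6.5), 0.7–1.1% saline or deionised water, agitated 24 h at 25° C. Filtrates analysed by HPLC with single-point calibration; solubility expressed as RPL554 free base, not salt.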

[2] = Intrinsic dissolution of compressed tablet, pH 7.0, 37° C. (Sirius inForm); assay type: physicochemical; conditions: for Mass of salt (μg) dissolved after 2 hours, Average / Mass of salt (μg) dissolved after 2 hours, Test 1 / Mass of salt (μg) dissolved after 2 hours, Test 2: pH 7.0, 0.15 M NaCl, 37° C.
In short: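 Compressed 3 mm tablet (~10 mg, 100 kg load), one face exposed, dissolved in pH 7.0 aqueous medium (0.15 M NaCl, 0.01 M acetate/phosphate buffer) at 37° C., stirred at 100 rpm for 2 h. UV absorbance (<1.3) converted to dissolved weight via pH-dependent molar extinction coefficients.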

[3] = Primary particle size analysis by laser light diffraction (Mastersizer 2000); assay type: physicochemical; conditions: micronised, mean n=3
Method: A Mastersizer 2000 fitted with a Scirocco 2000 dry powder dispersion unit (Malvern Instruments Ltd, UK) was used to analyse the primary particle size of the micronised RPL554 and salt variants. The salts (50 mg) were automatically sampled via a vibrating feed control at a feeder rate of 60% and dispersed in compressed air at a pressure of 3 bar.

[4] = Solubility of RPL554 and salts in pMDI propellant systems; assay type: physicochemical
In short: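 Ten actuations from each pMDI, three replicates per formulation, were filtered through a 0.20 μm filter into a vial cooled in dry ice/acetone, with about 10 s shaking between shots. The filtrate was evaporated to dryness, the residue recovered in 1 mL recovery solution and quantified by HPLC. The percent solubilised was taken against the starting RPL554 mass in the canister, computed from theoretical molecular weights of free base and salts.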

[5] = RPL554 content and content uniformity of 1% w/w lactose powder blends; assay type: physicochemical; conditions: for Measured Blend Content (% Theoretical): 1% w/w RPL554 variant: lactose powder blend, expressed as RPL554 base; for **Adjusted RPL554 Content per capsule: per 20 mg capsule of 1% w/w lactose blend, adjusted for measured blend content (% theoretical), as RPL554 base
In short: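 RPL554 free base or salt was sieved (38 μm) with some lactose, mortar-mixed with the rest, and Turbula-blended for 10 min at 46 rpm to give 1% w/w blends. For uniformity, ~20 mg samples from each blend were diluted to 10 mL, sonicated for 3 min and assayed by HPLC.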

[6] = Physico-chemical characteristics of salt candidates: solubility in water, pH of aqueous suspension/solution, form post water maturation
Method: The physico-chemical characteristics of the salt candidates were determined.

[7] = listed as ethane-1,2-disulfonate salt
[8] = HFA 227: 10% Ethanol: 0.1% Tween
[9] = in HFA 134, listed as Ethane-1,2-disulfonate hemi-salt
[10] = in HFA 134 with Ethanol/Tween, listed as Ethane-1,2-disulfonate hemi-salt
[11] = listed as hydrochloride salt, hydrochloride
[12] = in HFA 134 with Ethanol/Tween, hydrochloride

Structure (SMILES): COc1cc2c(cc1OC)-c1c/c(=N\c3c(C)cc(C)cc3C)n(CCNC(N)=O)c(=O)n1CC2 [Ethane-1,2-disulfonate, RPL554 ethane-1,2-disulfonate]
- Solubility as RPL554 (mg/ml) in 0.7 w/w % Saline [1]: 4.79 mg/mL
- Mass of salt (μg) dissolved after 2 hours, Average [2, 7]: 28.0 µg
- Mass of salt (μg) dissolved after 2 hours, Test 1 [2, 7]: 21.1 µg
- Mass of salt (μg) dissolved after 2 hours, Test 2 [2, 7]: 34.9 µg
- D (0.1) (μm) [3]: 0.52 μm
- D (0.5) (μm) [3]: 1.25 μm
- D (0.9) (μm) [3]: 2.78 μm
- Estimated Solubilised RPL554 μg per 50 μL actuation [4, 8]: 0.11 µg
- Solubility RPL554 [4, 8]: 1.69 µg/g
- Estimated RPL554 solubilised (%) ([4]; HFA 227: 10% Ethanol: 0.1% Tween, listed as Ethane-1,2-disulfonate hemi-salt): 0.07%
- Solubility RPL554 (μg/g) ([4]; in HFA 134, BLQ = below limit of quantitation (0.06 μg/mL), listed as Ethane-1,2-disulfonate hemi-salt): BLQ
- Calculated RPL554 solubilised (%) [4, 9]: BLQ
- Calculated Solubilised RPL554 μg per 50 μL actuation [4, 9]: BLQ
- Solubility RPL554 ([4]; in HFA 134 with Ethanol/Tween): 5 µg/g
- Estimated RPL554 solubilised (%) [4, 10]: 0.20%
- Estimated Solubilised RPL554 μg per 50 μL actuation [4, 10]: 0.34 µg
- Solubility RPL554 [4, 10]: 5.13 µg/g
- Calculated RPL554 solubilised (%) ([4]; in HFA 227): BLQ
- Calculated Solubilised RPL554 μg per 50 μL actuation ([4]; in HFA 227): BLQ
- Solubility RPL554 (μg/g) ([4]; in HFA 227): BLQ
- Measured Blend Content (% Theoretical) [5]: 80.18 % Theoretical
- **Adjusted RPL554 Content per capsule [5]: 133.73 µg
- pH of aqueous suspension/solution ([6]; listed as Ethane-1,2-disulfonic): 3.72

Structure (SMILES): COc1cc2c(cc1OC)-c1c/c(=N\c3c(C)cc(C)cc3C)n(CCNC(N)=O)c(=O)n1CC2 [Hydrochloride, RPL554 hydrochloride]
- Solubility as RPL554 (mg/ml) in 0.7 w/w % Saline ([1]; hydrochloride): 2.85 mg/mL
- Solubility as RPL554 (mg/ml) in 0.9 w/w % Saline ([1]; hydrochloride): 1.93 mg/mL
- Solubility as RPL554 (mg/ml) in 1.1 w/w % Saline ([1]; hydrochloride): 2.48 mg/mL
- Solubility as RPL554 (mg/ml) in Water ([1]; hydrochloride): 12.66 mg/mL
- solubility at 24 h ([1]; phosphate buffer in 0.9% w/w saline, 25 °C, pH 6.5, aqueous buffer, thermodynamic from solid, in saline 0.9% w/w, read-out: Solubility as RPL554 (mg/ml) in buffer solution pH 6.5, Phosphate): 0.02 mg/mL
- Mass of salt (μg) dissolved after 2 hours, Average [2, 11]: 35.6 µg
- Mass of salt (μg) dissolved after 2 hours, Test 1 [2, 11]: 31.7 µg
- Mass of salt (μg) dissolved after 2 hours, Test 2 [2, 11]: 39.4 µg
- D (0.1) (μm) ([3]; hydrochloride): 0.53 μm
- D (0.5) (μm) ([3]; hydrochloride): 1.37 μm
- D (0.9) (μm) ([3]; hydrochloride): 3.47 μm
- Solubility RPL554 (μg/g) ([4]; in HFA 134, BLQ = below limit of quantitation (0.06 μg/mL), hydrochloride): BLQ
- Calculated RPL554 solubilised (%) ([4]; in HFA 134, hydrochloride): BLQ
- Calculated Solubilised RPL554 μg per 50 μL actuation ([4]; in HFA 134, hydrochloride): BLQ
- Estimated RPL554 solubilised (%) [4, 12]: 5.27%
- Estimated Solubilised RPL554 μg per 50 μL actuation [4, 12]: 9.79 µg
- Solubility RPL554 [4, 12]: 149.17 µg/g
- Calculated RPL554 solubilised (%) ([4]; in HFA 227): BLQ
- Calculated Solubilised RPL554 μg per 50 μL actuation ([4]; in HFA 227): BLQ
- Solubility RPL554 (μg/g) ([4]; in HFA 227): BLQ
- Measured Blend Content (% Theoretical) ([5]; hydrochloride): 84.42 % Theoretical
- **Adjusted RPL554 Content per capsule ([5]; hydrochloride): 156.86 µg
- pH of aqueous suspension/solution ([6]; listed as Hydrochloric anhydrous source, hydrochloride): 3.68
- pH of aqueous suspension/solution ([6]; listed as Hydrochloric aqueous source, hydrochloride): 3.84

Structure (SMILES): COc1cc2c(cc1OC)-c1c/c(=N\c3c(C)cc(C)cc3C)n(CCNC(N)=O)c(=O)n1CC2 [Sulfate, RPL554 sulfate]
- Solubility as RPL554 (mg/ml) in 0.7 w/w % Saline [1]: 2.78 mg/mL
- Solubility as RPL554 (mg/ml) in 0.9 w/w % Saline [1]: 1.94 mg/mL
- Solubility as RPL554 (mg/ml) in 1.1 w/w % Saline [1]: 1.35 mg/mL
- Solubility as RPL554 (mg/ml) in Water [1]: 12.11 mg/mL
- dissolution compared with free base / other salts ([2]; 2 hour experiments): higher dissolution than the rest of the salts
- dissolution behaviour over 24 hours ([2]; 24 hours experiment): did start to precipitate slowly but still remained highly supersaturated even after 24 hrs
- maximum pH change (decrease) during dissolution ([2]; nominal start pH 7, listed as sulfate salt): about 0.15 pH units
- Mass of salt (μg) dissolved after 2 hours, Average ([2]; listed as sulfate salt): 6205 µg
- Mass of salt (μg) dissolved after 2 hours, Test 1 ([2]; listed as sulfate salt): 5910 µg
- Mass of salt (μg) dissolved after 2 hours, Test 2 ([2]; listed as sulfate salt): 6500 µg
- D (0.1) (μm) [3]: 0.51 μm
- D (0.5) (μm) [3]: 1.12 μm
- D (0.9) (μm) [3]: 2.30 μm
- Calculated RPL554 solubilised (%) ([4]; in HFA 134): BLQ
- Calculated Solubilised RPL554 μg per 50 μL actuation ([4]; in HFA 134): BLQ
- Solubility RPL554 (μg/g) ([4]; in HFA 134, BLQ = below limit of quantitation (0.06 μg/mL)): BLQ
- Estimated RPL554 solubilised (%) ([4]; in HFA 134 with Ethanol/Tween): 2.84%
- Estimated Solubilised RPL554 μg per 50 μL actuation ([4]; in HFA 134 with Ethanol/Tween): 4.71 µg
- Solubility RPL554 ([4]; in HFA 134 with Ethanol/Tween): 73.19 µg/g
- Calculated RPL554 solubilised (%) ([4]; in HFA 227): BLQ
- Calculated Solubilised RPL554 μg per 50 μL actuation ([4]; in HFA 227): BLQ
- Solubility RPL554 (μg/g) ([4]; in HFA 227): BLQ
- Measured Blend Content (% Theoretical) [5]: 73.50 % Theoretical
- **Adjusted RPL554 Content per capsule [5]: 121.95 µg
- pH of aqueous suspension/solution ([6]; listed as Sulfuric - aqueous solution): 1.87
